{"source": "patent US20070160554A1", "about": "“Acyl ribonucleosides and acyl deoxyribonucleosides, compositions of, and methods of making same” (COGNIS IP MANAGEMENT GMBH, priority 2003, published 2007)", "key": {"human fibroblasts [1]": {"tested_on": "human fibroblasts", "assay": "Non-toxicity on quiescent human fibroblasts (second experiment: DNA, ATP, proteins, GSH/proteins)", "assay_type": "cell-based", "settings": "for ATP / DNA / GSH/proteins / Proteins: quiescent fibroblasts, 3 days; for modification of growth, energetic metabolism and protein metabolism of the fibroblasts: human fibroblasts in vitro", "description": "Uridine palmitate and uridine stearate were added in the culture medium starting from a stock solution at 1% (w/v) in DMSO. After an incubation of 3 days the number of viable cells was determined by evaluation of the levels of cellular DNA (fluorescent probe), ATP, proteins (Bradford's method) and the rate of cellular GSH (GSH is glutathione) normalised to the level of cellular proteins."}, "[2]": {"tested_on": "Melanocytes (B16 cell line)", "assay": "Inhibition of melanin synthesis in B16 melanocytes (melanin by optical density at 475 nm, cellular proteins by Bradford)", "assay_type": "cell-based, mouse", "settings": "for effect on the rate of released melanin / inhibition of melanin synthesis: B16 melanocytes, at concentrations not toxic to human fibroblasts; for Rate of Melanin / Rate of cellular proteins: B16, 3 days", "excerpt": "Melanin is the pigment responsible for the colour of skin and hairs. Melanin synthesis takes place in specific organelles so called melanosomes in human melanocytes located in the basal layer of the human epidermis. This synthesis begins by oxidation of tyrosine to DOPA (dihydroxy-phenyl-alanine) by tyrosinase and then DOPA polymerises to melanin which is stored in melanosomes.\nMelanocytes (B16 cell line: B16 is the name of the mouse melanoma cells used in this test.) were inoculated in standard cell culture medium of foetal calf serum (FCS). […] Uridine palmitate and ulidine stearate were added to the culture medium starting from a stock solution at 1% (w/v) in DMSO. After an incubation of 3 days, the number of viable cells was determined by the evaluation of the levels of cellularproteins (Bradford's method) and the level of synthesized melanin was measured by recording the optical density at 475 nm of cell's homogenate. The results are expressed in table 4."}, "human fibroblasts [3]": {"tested_on": "human fibroblasts", "settings": "for Proteins (level of cellular proteins) / LD50: 3 days; for LD50: human", "description": "In a first experiment, human fibroblasts were inoculated in a standard cell culture medium of foetal calf serum (or FCS). After an incubation of 1 day at 37° C. under an atmosphere of air, enriched to a carbon dioxide content of 5%, the growth medium was exchanged for a standard medium with a range of concentrations of uridine, uridine palmitate and uridine stearate."}}, "note": "Read-outs that look alike come from different tables or passages of the source."}
{"smiles": "CCCCCCCCCCCCCCCC(=O)O[C@@H]1[C@H](O)[C@@H](CO)O[C@H]1n1ccc(=O)[nH]c1=O", "note": "[Mono-O-palmitoyl uridine, Mono-O-Palmitoyl Uridine]", "values": [{"measurement": "ATP", "setting": "human fibroblasts [1]; dose 0,001 % w/v", "result": 111, "unit": "%/control"}, {"measurement": "DNA", "setting": "human fibroblasts [1]; dose 0,001 % w/v", "result": 92, "unit": "%/control"}, {"measurement": "GSH/proteins", "setting": "human fibroblasts [1]; dose 0,001 % w/v", "result": 103, "unit": "%/control"}, {"measurement": "Proteins", "setting": "human fibroblasts [1]; dose 0,001 % w/v", "result": 98, "unit": "%/control"}, {"measurement": "ATP", "setting": "human fibroblasts [1]; dose 0,003 % w/v", "result": 86, "unit": "%/control"}, {"measurement": "DNA", "setting": "human fibroblasts [1]; dose 0,003 % w/v", "result": 83, "unit": "%/control"}, {"measurement": "GSH/proteins", "setting": "human fibroblasts [1]; dose 0,003 % w/v", "result": 108, "unit": "%/control"}, {"measurement": "Proteins", "setting": "human fibroblasts [1]; dose 0,003 % w/v", "result": 91, "unit": "%/control"}, {"measurement": "modification of growth, energetic metabolism and protein metabolism of the fibroblasts", "setting": "human fibroblasts [1]", "result": "not modified the growth of the fibroblasts"}, {"measurement": "effect on the rate of released melanin / inhibition of melanin synthesis", "setting": "[2]", "result": "strongly decreased the rate of released melanin"}, {"measurement": "Rate of Melanin", "setting": "[2]; dose 0.001 % w/v", "result": 98, "unit": "% against control"}, {"measurement": "Rate of cellular proteins", "setting": "[2]; dose 0.001 % w/v", "result": 100, "unit": "% against control"}, {"measurement": "Rate of Melanin", "setting": "[2]; dose 0.003 % w/v", "result": 69, "unit": "% against control"}, {"measurement": "Rate of cellular proteins", "setting": "[2]; dose 0.003 % w/v", "result": 95, "unit": "% against control"}, {"measurement": "Rate of Melanin", "setting": "[2]; dose 0.01 % w/v", "result": 44, "unit": "% against control"}, {"measurement": "Rate of cellular proteins", "setting": "[2]; dose 0.01 % w/v", "result": 110, "unit": "% against control"}, {"measurement": "toxic effects on growing human fibroblasts cultured in vitro", "setting": "human fibroblasts [3]", "result": "not shown any toxic effects"}, {"measurement": "Proteins (level of cellular proteins)", "setting": "human fibroblasts [3]; dose 0.003 % w/v", "result": 92, "unit": "%/control"}, {"measurement": "Proteins (level of cellular proteins)", "setting": "human fibroblasts [3]; dose 0.01 % w/v", "result": 97, "unit": "%/control"}, {"measurement": "LD50", "setting": "human fibroblasts [3]", "result": ">0.01", "unit": "% w/v"}]}
{"smiles": "CCCC(=O)OC[C@H]1O[C@@H](n2ccc(=O)[nH]c2=O)[C@H](OC(=O)CCC)[C@@H]1OC(=O)CCC", "note": "[Tri-O-Butyryl-Uridine, reference compound]", "values": [{"measurement": "effect on the rate of released melanin / inhibition of melanin synthesis", "setting": "[2]", "result": "no or only a very poor effect"}, {"measurement": "Rate of Melanin", "setting": "[2]; dose 0.001 % w/v", "result": 106, "unit": "% against control"}, {"measurement": "Rate of cellular proteins", "setting": "[2]; dose 0.001 % w/v", "result": 100, "unit": "% against control"}, {"measurement": "Rate of Melanin", "setting": "[2]; dose 0.003 % w/v", "result": 106, "unit": "% against control"}, {"measurement": "Rate of cellular proteins", "setting": "[2]; dose 0.003 % w/v", "result": 106, "unit": "% against control"}, {"measurement": "Rate of Melanin", "setting": "[2]; dose 0.01 % w/v", "result": 105, "unit": "% against control"}, {"measurement": "Rate of cellular proteins", "setting": "[2]; dose 0.01 % w/v", "result": 103, "unit": "% against control"}]}
{"smiles": "CCCCCCCCCCCCCCCCCC(=O)O[C@@H]1[C@H](O)[C@@H](CO)O[C@H]1n1ccc(=O)[nH]c1=O", "note": "[Mono-O-stearoyl uridine, Mono-O-Stearoyl Uridine]", "values": [{"measurement": "ATP", "setting": "human fibroblasts [1]; dose 0,0015 % w/v", "result": 91, "unit": "%/control"}, {"measurement": "DNA", "setting": "human fibroblasts [1]; dose 0,0015 % w/v", "result": 94, "unit": "%/control"}, {"measurement": "GSH/proteins", "setting": "human fibroblasts [1]; dose 0,0015 % w/v", "result": 98, "unit": "%/control"}, {"measurement": "Proteins", "setting": "human fibroblasts [1]; dose 0,0015 % w/v", "result": 96, "unit": "%/control"}, {"measurement": "ATP", "setting": "human fibroblasts [1]; dose 0,005 % w/v", "result": 92, "unit": "%/control"}, {"measurement": "DNA", "setting": "human fibroblasts [1]; dose 0,005 % w/v", "result": 100, "unit": "%/control"}, {"measurement": "GSH/proteins", "setting": "human fibroblasts [1]; dose 0,005 % w/v", "result": 135, "unit": "%/control"}, {"measurement": "Proteins", "setting": "human fibroblasts [1]; dose 0,005 % w/v", "result": 95, "unit": "%/control"}, {"measurement": "modification of growth, energetic metabolism and protein metabolism of the fibroblasts", "setting": "human fibroblasts [1]", "result": "not modified the growth of the fibroblasts"}, {"measurement": "effect on the rate of released melanin / inhibition of melanin synthesis", "setting": "[2]", "result": "strongly decreased the rate of released melanin"}, {"measurement": "Rate of Melanin", "setting": "[2]; dose 0.001 % w/v", "result": 84, "unit": "% against control"}, {"measurement": "Rate of cellular proteins", "setting": "[2]; dose 0.001 % w/v", "result": 98, "unit": "% against control"}, {"measurement": "Rate of Melanin", "setting": "[2]; dose 0.003 % w/v", "result": 65, "unit": "% against control"}, {"measurement": "Rate of cellular proteins", "setting": "[2]; dose 0.003 % w/v", "result": 92, "unit": "% against control"}, {"measurement": "Rate of Melanin", "setting": "[2]; dose 0.01 % w/v", "result": 19, "unit": "% against control"}, {"measurement": "Rate of cellular proteins", "setting": "[2]; dose 0.01 % w/v", "result": 99, "unit": "% against control"}, {"measurement": "toxic effects on growing human fibroblasts cultured in vitro", "setting": "human fibroblasts [3]", "result": "not shown any toxic effects"}, {"measurement": "Proteins (level of cellular proteins)", "setting": "human fibroblasts [3]; dose 0.0005 % w/v", "result": 90, "unit": "%/control"}, {"measurement": "Proteins (level of cellular proteins)", "setting": "human fibroblasts [3]; dose 0.0015 % w/v", "result": 87, "unit": "%/control"}, {"measurement": "LD50", "setting": "human fibroblasts [3]", "result": ">0.01", "unit": "% w/v"}]}
{"smiles": "O=c1ccn([C@@H]2O[C@H](CO)[C@@H](O)[C@H]2O)c(=O)[nH]1", "note": "[Uridine, uridine, reference compound]", "values": [{"measurement": "ATP", "setting": "human fibroblasts [1]; dose 0,01 % w/v", "result": 100, "unit": "%/control"}, {"measurement": "DNA", "setting": "human fibroblasts [1]; dose 0,01 % w/v", "result": 103, "unit": "%/control"}, {"measurement": "GSH/proteins", "setting": "human fibroblasts [1]; dose 0,01 % w/v", "result": 107, "unit": "%/control"}, {"measurement": "Proteins", "setting": "human fibroblasts [1]; dose 0,01 % w/v", "result": 100, "unit": "%/control"}, {"measurement": "ATP", "setting": "human fibroblasts [1]; dose 0,03 % w/v", "result": 89, "unit": "%/control"}, {"measurement": "DNA", "setting": "human fibroblasts [1]; dose 0,03 % w/v", "result": 94, "unit": "%/control"}, {"measurement": "GSH/proteins", "setting": "human fibroblasts [1]; dose 0,03 % w/v", "result": 102, "unit": "%/control"}, {"measurement": "Proteins", "setting": "human fibroblasts [1]; dose 0,03 % w/v", "result": 104, "unit": "%/control"}, {"measurement": "effect on the rate of released melanin / inhibition of melanin synthesis", "setting": "[2]", "result": "no or only a very poor effect"}, {"measurement": "Rate of Melanin", "setting": "[2]; dose 0.03 % w/v", "result": 92, "unit": "% against control"}, {"measurement": "Rate of cellular proteins", "setting": "[2]; dose 0.03 % w/v", "result": 94, "unit": "% against control"}, {"measurement": "Rate of Melanin", "setting": "[2]; dose 0.1 % w/v", "result": 92, "unit": "% against control"}, {"measurement": "Rate of cellular proteins", "setting": "[2]; dose 0.1 % w/v", "result": 97, "unit": "% against control"}, {"measurement": "Proteins (level of cellular proteins)", "setting": "human fibroblasts [3]; dose 0.03 % w/v", "result": 104, "unit": "%/control"}, {"measurement": "Proteins (level of cellular proteins)", "setting": "human fibroblasts [3]; dose 0.1 % w/v", "result": 99, "unit": "%/control"}]}
